The record followed here is ChEMBL document CHEMBL5331123, “Potent Dual Inhibitors of Steroid Sulfatase and 17β-Hydroxysteroid Dehydrogenase Type 1 with a Suitable Pharmacokinetic Profile for In Vivo Proof-of-Principle Studies in an Endometriosis Mouse Model” (J Med Chem, 2023).

SMILES strings stand for the structures. ≈ marks a conversion by molar mass, not a printed value.

Data set [1] has as its target T1, Steryl-sulfatase (Homo sapiens, UniProt P08842).
T1 sequence (P08842 whole entry): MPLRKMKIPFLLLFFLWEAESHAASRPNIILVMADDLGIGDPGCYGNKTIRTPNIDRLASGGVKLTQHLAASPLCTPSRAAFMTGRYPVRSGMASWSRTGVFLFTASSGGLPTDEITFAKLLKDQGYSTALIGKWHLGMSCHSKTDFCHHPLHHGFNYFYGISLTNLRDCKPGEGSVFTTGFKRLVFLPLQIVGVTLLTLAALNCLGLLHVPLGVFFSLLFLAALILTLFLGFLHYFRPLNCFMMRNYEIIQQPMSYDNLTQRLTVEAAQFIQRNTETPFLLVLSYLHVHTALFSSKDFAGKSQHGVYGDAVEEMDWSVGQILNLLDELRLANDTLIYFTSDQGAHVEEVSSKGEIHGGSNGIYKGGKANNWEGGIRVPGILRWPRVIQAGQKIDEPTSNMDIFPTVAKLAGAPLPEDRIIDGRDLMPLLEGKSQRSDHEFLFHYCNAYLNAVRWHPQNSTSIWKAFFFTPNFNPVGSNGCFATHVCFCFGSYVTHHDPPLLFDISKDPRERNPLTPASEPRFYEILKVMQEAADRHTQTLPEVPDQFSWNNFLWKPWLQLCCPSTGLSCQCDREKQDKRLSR
Put plainly: Inhibition of human STS expressed in human T47D cells using [3H]E1S as substrate incubated for 1 hr followed by substrate addition measured after 24 hrs in presence of E1S by HPLC analysis. Type of data set: cell-based.

The target in data set [2] is T2, 17-beta-hydroxysteroid dehydrogenase type 1 (Homo sapiens, UniProt P14061).
T2 sequence (P14061 whole entry): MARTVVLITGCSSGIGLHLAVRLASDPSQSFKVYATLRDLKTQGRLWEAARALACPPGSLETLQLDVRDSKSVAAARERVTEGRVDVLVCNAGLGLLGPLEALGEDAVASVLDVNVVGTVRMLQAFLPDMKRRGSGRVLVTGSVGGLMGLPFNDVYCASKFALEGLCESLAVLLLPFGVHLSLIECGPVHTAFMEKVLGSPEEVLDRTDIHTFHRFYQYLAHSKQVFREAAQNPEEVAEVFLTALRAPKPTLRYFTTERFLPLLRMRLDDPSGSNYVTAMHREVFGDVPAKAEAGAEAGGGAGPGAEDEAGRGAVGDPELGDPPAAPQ
Put plainly: Inhibition of human 17beta-HSD1 expressed in human T47D cells using [3H]E1 as substrate incubated for 1 hr followed by substrate addition measured after 40 mins in presence of E1 by HPLC analysis. The format is cell-based.

A short description of data set [3]: Metabolic stability in human liver S9 fraction assessed as half life measured upto 60 mins in presence of NADPH by LC-MS/MS analysis. The format is ADME, subcellular. The note with it: liver S9 fraction.
Data set [4] can be described thus: Metabolic stability in mouse liver S9 fraction assessed as half life measured upto 60 mins in presence of NADPH by LC-MS/MS analysis. The settings on record: liver S9 fraction. The format is ADME, subcellular.
Data set [5] has as its target T2, 17-beta-hydroxysteroid dehydrogenase type 1. Put plainly: Inhibition of human placental cytosolic fraction 17beta-HSD1 using [3H]E1 as substrate measured after 10 mins in presence of NADH by HPLC analysis. The format is tissue-based, Placenta.
Data set [6] concerns the target T3, 17-beta-hydroxysteroid dehydrogenase type 2 (Homo sapiens, UniProt P37059).
T3 sequence (P37059 whole entry): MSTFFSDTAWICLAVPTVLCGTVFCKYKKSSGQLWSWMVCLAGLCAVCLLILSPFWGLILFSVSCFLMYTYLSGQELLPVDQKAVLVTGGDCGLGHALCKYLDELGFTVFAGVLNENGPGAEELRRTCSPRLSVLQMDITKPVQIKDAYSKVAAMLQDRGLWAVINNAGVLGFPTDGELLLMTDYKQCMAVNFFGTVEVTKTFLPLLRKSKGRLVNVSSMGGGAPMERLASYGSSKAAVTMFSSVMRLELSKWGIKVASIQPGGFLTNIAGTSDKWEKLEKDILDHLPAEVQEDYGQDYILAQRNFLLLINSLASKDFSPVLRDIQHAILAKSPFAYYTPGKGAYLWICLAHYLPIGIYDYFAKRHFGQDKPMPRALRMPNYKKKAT
Kind of data set: Inhibition of human placental microsomal fraction 17beta-HSD2 using [3H]E2 as substrate measured after 20 mins in presence of NAD+ by HPLC analysis. The format is microsomes, Placenta, Microsome.

The species named for the next data set is Homo sapiens. Kind of data set: Selectivity ratio of IC50 for human placental microsomal fraction 17beta-HSD2 to IC50 for human placental microsomal fraction 17beta-HSD1.
For data set [7], the target named is T1, Steryl-sulfatase. Put plainly: Irreversible inhibition of human STS expressed in human T47D cells using [3H]E1S as substrate preincubated for 2 hr followed by substrate addition measured after 24 hrs in presence of E1S by HPLC analysis. The format is cell-based.
Data set [8] can be described thus: Metabolic stability in human liver S9 fraction assessed as intrinsic clearance measured upto 60 mins in presence of NADPH by LC-MS/MS analysis. Type of data set: ADME, subcellular. The settings on record: read-out: CLH.
The subject of the next data set is HEK293. Kind of data set: Cytotoxicity against HEK293 cells assessed as cell growth inhibition by measuring lethal concentration measured after 72 hrs by MTT assay. The format is functional, Homo sapiens.
Another data set has as its system HepG2. Put plainly: Cytotoxicity against human HepG2 cells assessed as cell growth inhibition by measuring lethal concentration measured after 48 hrs by MTT assay. Type of data set: functional.
The target of data set [9] is T4, Aryl hydrocarbon receptor (Homo sapiens, UniProt P35869).
T4 sequence (P35869 whole entry): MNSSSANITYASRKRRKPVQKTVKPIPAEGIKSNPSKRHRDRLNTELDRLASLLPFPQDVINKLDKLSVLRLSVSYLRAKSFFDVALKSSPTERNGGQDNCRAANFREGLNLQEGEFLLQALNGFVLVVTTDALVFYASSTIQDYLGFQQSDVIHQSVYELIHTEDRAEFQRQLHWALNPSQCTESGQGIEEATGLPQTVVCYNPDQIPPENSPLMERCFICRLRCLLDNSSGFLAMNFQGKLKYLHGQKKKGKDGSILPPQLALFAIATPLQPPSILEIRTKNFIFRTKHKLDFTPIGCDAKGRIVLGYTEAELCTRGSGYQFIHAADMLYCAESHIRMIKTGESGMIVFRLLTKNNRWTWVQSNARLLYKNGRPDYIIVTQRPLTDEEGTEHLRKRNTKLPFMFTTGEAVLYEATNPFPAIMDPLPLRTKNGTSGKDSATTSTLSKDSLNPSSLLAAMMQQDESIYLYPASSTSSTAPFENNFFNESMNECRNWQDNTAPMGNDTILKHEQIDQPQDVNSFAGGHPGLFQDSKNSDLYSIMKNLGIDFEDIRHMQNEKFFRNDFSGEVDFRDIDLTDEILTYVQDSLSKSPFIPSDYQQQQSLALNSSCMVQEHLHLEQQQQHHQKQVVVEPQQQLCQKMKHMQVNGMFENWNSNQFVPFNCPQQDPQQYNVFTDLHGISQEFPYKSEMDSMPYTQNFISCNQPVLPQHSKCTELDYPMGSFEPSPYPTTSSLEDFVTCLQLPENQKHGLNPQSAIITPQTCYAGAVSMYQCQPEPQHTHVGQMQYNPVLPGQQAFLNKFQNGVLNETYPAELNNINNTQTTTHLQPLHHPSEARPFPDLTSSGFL
Kind of data set: Activation of AhR in human HepG2 cells assessed as increase in CYP1A1 activity at 3.16 uM measured after 48 hrs by fluorescence based analysis. The format is cell-based. The settings on record: hepg2, 48 h.

Data set [10] in a line: Observed Cmax in C57BL/6 mouse at 50 mg/kg, sc administered as single dose measured upto 24 hrs by HPLC-MS/MS analysis. The format is ADME, organism-based. On the set-up: time < 24 hrs, dose 50 mg/kg, route sc. The note with it: in vivo.
The nature of data set [11]: Drug concentration in C57BL/6 mouse at 50 mg/kg, sc administered as single dose measured after 24 hrs by HPLC-MS/MS analysis. The format is ADME, organism-based. The settings on record: in vivo, read-out: Drug uptake.
The nature of data set [12]: Half life in C57BL/6 mouse at 50 mg/kg, sc administered as single dose measured after 24 hrs by HPLC-MS/MS analysis. The note with it: in vivo. The format is ADME, organism-based.
Data set [13] is described as follows: AUC(0 to 24 hrs) in C57BL/6 mouse at 50 mg/kg, sc administered as single dose measured after 24 hrs by HPLC-MS/MS analysis. The format is ADME, organism-based. On the set-up: time 24 hrs, dose 50 mg/kg, route sc. The note with it: in vivo.
Data set [14] in a line: Lipophilicity, logD of compound at pH 7.4. The format is physicochemical. The settings on record: buffer.
Data set [15] is described as follows: Aqueous solubility of compound in PBS measured after 1 to 24 hrs. Type of data set: physicochemical. The note with it: time 1-24 hrs.
The nature of data set [16]: Oral bioavailability in C57BL/6 mouse at 50 mg/kg administered as single dose measured after 24 hrs by HPLC-MS/MS analysis. The format is ADME, organism-based. The note with it: in vivo.
The nature of data set [17]: Cmax in C57BL/6 mouse at 50 mg/kg, sc administered as single dose ever day measured after 2 hrs by HPLC-MS/MS analysis. Type of data set: ADME, organism-based. On the set-up: dose 50 mg/kg, time 2 hrs, route sc. The settings on record: in vivo.
A short description of data set [18]: Cmin in C57BL/6 mouse at 50 mg/kg, sc administered as single dose ever day measured after 24 hrs by HPLC-MS/MS analysis. Type of data set: ADME, organism-based. The settings on record: in vivo, read-out: Cmin.

Consider `Cc1cc(OS(N)(=O)=O)ccc1N(C)C(=O)c1ccc(-c2cc(C)c(O)c(C)c2)o1`, for which the half-inhibitory concentration (IC50) worked out at 400 nM at Steryl-sulfatase [1]; 11 nM in data set [2]; 43 nM in [5]; 6200 nM in [6]; 420 nM on Steryl-sulfatase [7]. Moreover, the half-life in [3] is 1.42 h; in data set [4], 0.935 h; in data set [12], 3.82 h. Besides, the Ratio IC50 in the data set filed under Homo sapiens amounted to 145. Moreover, in data set [8], the microsomal CLint came to 8.2 µL/min/mg. The LC20 result in the data set on HEK293 is “<=31 uM”; in the data set on HepG2 it was 23000 nM. The Activity result in data set [9] is “Not Active”. Further, the Cmax in data set [10] is 2820 nM; in data set [17], 2350 nM. For the same compound, the values for the concentration at 24 h in [11] and in [18] were 797 nM and 800 nM, respectively. The compound further registered an exposure AUC(0-t) at 24 h in data set [13] of 11600 ng·h/mL. The compound also returned a logD in [14] of 2.2. The same compound had a solubility in [15] of 40 µM (≈ 17.2 µg/mL). The same compound showed a bioavailability in data set [16] of 1.5%.
